Test results: paper PMC10385579, “Design, Synthesis, and Biological Evaluation of Indole-2-carboxamides as Potential Multi-Target Antiproliferative Agents” (Pharmaceuticals, 2023)

What was measured:
caspase-8 = experiment: Caspase-8 level assay in A-549 cells; assay type: cell-based, human; settings: for Caspase-8 Conc: control 0.10; for Caspase-8 Fold Change: vs control
Method: See Supplementary Materials.
4.2.6. Caspase-8 activation assay […]
caspase8, and lysed with Cell Extraction Buffer. This lysate was diluted in Standard Diluent Buffer over the range of the assay and measured for human active caspase-8 content. (Cells are Plated in a density of 1.2 – 1.8 × 10,000 cells/well in a vo lume of 100µl complete growth medium + 100 ul of the tested compound per well in a 96-well plate for 24 hours before the enzyme assay for Tubulin.). The absorbance of each microwell was read on a spectro-photometer at 450 nm. A standard curve is prepared from 7human Caspase-8 standard dilutions and human Caspase-8 concentration determined. […]

[1] = test system: breast cancer (MCF-7) cell line; experiment: Antiproliferative assay, MCF-7; assay type: cell-based; settings: Homo sapiens, MCF7; read-out: Antiproliferative Activity IC50 ± SEM, MCF-7
Method: 4.2.1.2. Assay for antiproliferative effect
To explore the antiproliferative potential of compounds propidium iodide fluorescence assay was performed using different cell lines such as Panc-1 (pancreas cancer cell line), MCF-7 (breast cancer cell line), HT-29 (colon cancer cell line) and A-549 (epithelial cancer cell line), respectively.
To calculate the total nuclear DNA, a fluorescent dye (propidium iodide, PI) is used which can attach to the DNA, thus offering a quick and precise technique. PI cannot pass through the cell membrane and its signal intensity can be considered as directly proportional to quantity of cellular
DNA. Cells whose cell membranes are damaged or have changed permeability are counted as dead ones. The assay was performed by seeding the cells of different cell lines at a density of 3000-7500 cells/well (in200μl medium) in culture plates followed by incubation for 24h at 37 °C in humidified 5%CO2/95% air atmospheric conditions. The medium was removed; the compounds were added to the plates at 10 μM concentrations (in 0.1% DMSO) in triplicates, followed by incubation for 48h. DMSO (0.1%) was used as control. After incubation, medium was removed followed by the addition of PI (25 μl, 50μg/mL in water/medium) to each well of the plates. At - 80 °C, the plates were allowed to freeze for 24 h, followed by thawing at 25 °C. A fluorometer (Polar-Star BMG Tech) was used to record the readings at excitation and emission wavelengths of 530 and 620 nm for each well. The percentage cytotoxicity of compounds was calculated using […]
Where ATC= Absorbance of treated cells and AC= Absorbance of control. Erlotinib was used as positive control in the assay.

[2] = Cell viability assay (MTT) on MCF-10A; assay type: cell-based; settings: human, MCF-10A mammary gland epithelial cells, MCF-10A cells, four days
Method: To assess the viability of compounds IV and Va–i, the human mammary gland epithelial (MCF-10A) cell line was exploited. Compounds IV and Va–i were cultured for four days on MCF-10A cells before being evaluated for vitality using the MTT assay.
To test the viability of the new compounds, the human mammary gland epithelial (MCF-10A) cell line was used. Compounds IV and Va–i were incubated on MCF-10A cells for four days before being tested for viability using the MTT assay. See Supplementary Materials.
4.2. Biological evaluation
4.2.1. Cytotoxic activity using MTT Assay and evaluation of IC50
MTT assay was performed to investigate the effect of the synthesized compounds on mammary epithelial cells (MCF-10A). The cells were propagated in medium consisting of Ham's F-12 medium/ Dulbecco's modified Eagle's medium (DMEM) (1:1) supplemented with 10% foetal calf serum, 2 mM glutamine, insulin (10 μg/mL), hydrocortisone (500 ng/mL) and epidermal growth factor (20 ng/mL). Trypsin ethylenediamine tetra acetic acid (EDTA) was used to passage the cells after every 2-3 days. 96-well flat-bottomed cell culture plates were used to seed the cells at a density of 10^4 cells mL-1. The medium was aspirated from all the wells of culture plates after 24 h followed by the addition of synthesized compounds (in 200 μL medium to yield a final concentration of 0.1% (v/v) dimethyl sulfoxide) into individual wells of the plates. Four wells were designated to a single compound. The plates were allowed to incubate at 37°C for 96 h. Afterwards, the medium was aspirated and 3-[4,5-dimethylthiazol-2-yl]-2,5-diphenyltetrazolium bromide (MTT) (0.4 mg/mL) in medium was added to each well and subsequently incubated for 3 h. The medium was aspirated and 150 μL dimethyl sulfoxide (DMSO) was added to each well. The plates were vortexed followed by the measurement of absorbance at 540 nm on a microplate reader. The results were presented as inhibition (%) of proliferation in contrast to controls comprising 0.1%

Row | IC50 [1] | Structure (SMILES) | Caspase-8 Conc (caspase-8) | Caspase-8 Fold Change (caspase-8) | viability at 96 h, 50 µM [2]
1 | 28 ± 2 nM | O=C(NCC(c1ccccc1)c1c(-c2ccccc2)[nH]c2ccccc12)c1cc2cc(Cl)ccc2[nH]1 (centres unmarked) [Compound Va, 5-Chloro-N-(2-phenyl-2-(2-phenyl-1H-indol-3-yl)ethyl)-1H-indole-2-carboxamide] | 3.50 ng/mL | 35 | 91%
2 | 33 ± 3 nM | CO/C=C/c1c(C(=O)NCC(c2ccccc2)c2c(-c3ccccc3)[nH]c3ccccc23)[nH]c2ccc(Cl)cc12 (centres unmarked) [Compound Vg, (E)-5-Chloro-3-(2-methoxyvinyl)-N-(2-phenyl-2-(2-phenyl-1H-indol-3-yl)ethyl)-1H-indole-2-carboxamide] | 2.20 ng/mL | 22 | 89%
